Source: patent publication US20200054057A1, “USE OF ACETYLENIC FATTY ACID COMPOUNDS AS KOKUMI FLAVOR” (Takasago International Corporation, priority 2017, published 2020)
“Also recorded” adds a separate entry of the source.

Key:
trained sensory panel [1] = experiment: Taste recognition thresholds for kokumi/mouthfulness enhancement, duo-trio tests in chanterelle flavor recombinant; type: in vivo, human; settings: for Kokumi threshold: in recombinant chanterelle flavor, pH 5.8, duo-trio test; for Kokumi effect (in words): vis-à-vis recombinant chanterelle flavor
Protocol: An artificial chanterelle flavor recombinant was used as a reference flavor for determining the flavor-enhancing effect of the compounds to be tested. The pH value was adjusted to 5.8 with trace amounts of formic acid: Seventeen trained assessors (ten women and seven men, ages 23-30) were recruited from the Chair of Food Chemistry and Molecular Sensory Science (TUM). The sensory sessions were performed at 22° C. in air-conditioned sensory booths. To prevent cross-modal interactions with odorants, the panelists used nose-clips. Furthermore the light in the sensory booths was adjusted to yellow in order to eliminate optical differences between the samples. The taste threshold concentrations of the purified compounds were determined in the above-described chanterelle flavor recombinant using duo-trio-tests. The pH value of the individual samples and blanks was adjusted to 5.8 by adding trace amounts of formic acid. The samples were presented in serial 1:2 dilutions in order of increasing concentrations to the trained panel and the panelists were asked to mark the sample differing from the recombinant which was used as constant reference (one sample was identical to the reference, one sample was different). The threshold value of the sensory panel was approximated by averaging the threshold values of the individual panelists in two independent sessions.

trained sensory panel [2] = experiment: Intrinsic taste recognition thresholds, three-alternative forced choice tests in 1% ethanol; type: in vivo, human; settings: in 1% ethanol/water; for Intrinsic taste quality: taste recognized at threshold; for Intrinsic taste threshold: three-alternative forced choice
Protocol: Seventeen trained assessors (ten women and seven men, ages 23-30) were recruited from the Chair of Food Chemistry and Molecular Sensory Science (TUM). The sensory sessions were performed at 22° C. in air-conditioned sensory booths. To prevent cross-modal interactions with odorants, the panelists used nose-clips. Furthermore the light in the sensory booths was adjusted to yellow in order to eliminate optical differences between the samples. The human recognition thresholds for the intrinsic taste of the purified compounds were determined by means of three-alternative forced choice tests in 1% ethanol. Serial 1:2 dilutions of the sample were presented in order of increasing concentrations to the panelists using the sip-and-spit-method. The geometric mean of the last and the next-to-last concentrations were calculated and taken as the individual recognition threshold. The threshold values evaluated in two different sessions were averaged.

SMILES | Kokumi threshold (trained sensory panel [1]) [µmol/L] | Intrinsic taste quality (trained sensory panel [2]) | Intrinsic taste threshold (trained sensory panel [2]) [µmol/L] | Kokumi effect (in words) (trained sensory panel [1])
CC/C=C/C(=O)C#CC/C=C\CCCCCCCC(=O)OC [Compound 9, (9Z,15E)-14-oxo-9,15-octadecadien-12-ynoic acid methyl ester] | 59 |  |  | 
CCC/C=C\C#CC/C=C\CCCCCCCC(=O)OC [Compound 12, 14,15-dehydrocrepenynic acid methyl ester] | 32 | [astringent] | 648 | 
CCC/C=C\C#C/C=C/C(CCCCCCCC(=O)O)OO (stereo not drawn) [Compound 10, (10E,14Z)-9-hydroperoxy-10,14-octadecadien-12-ynoic acid] | 38 | [bitter] | 536 | 
CCC/C=C\C#CC/C=C\CCCCCCCC(=O)OCC [Compound 13, 14,15-dehydrocrepenynic acid ethyl ester] | 59 | [astringent] | 512 | 
CCC/C=C\C#CC/C=C\CCCCCCCC(=O)O [Compound 11, 14,15-dehydrocrepenynic acid] | 105 | [bitter] | 531 | 
CCCCCC/C=C/C#CCCCCCCCC(=O)O [ximenynic acid, 11E-octadecen-9-ynoic acid, reference compound] | 84 | [bitter] | 482 | 
CCC/C=C\C#C/C=C/C(=O)CCCCCCCC(=O)O [Compound 6, (10E,14Z)-9-oxo-10,14-octadecadien-12-ynoic acid] | 79 | [astringent] | 639 | 
O=C(O)CCCCCCC/C=C\CC#CC(O)/C=C/C(O)CO (stereo not drawn) [Compound 1, (9Z,15E)-14,17,18-trihydroxy-9,15-octadecadien-12-ynoic acid] | 59 |  | >1000 | 
CC/C=C/C(=O)C#CC/C=C\CCCCCCCC(=O)O [Compound 5, (9Z,15E)-14-oxo-9,15-octadecadien-12-ynoic acid] | 19 | [pungent] | 228 | 
CCC/C=C\C#C/C=C/C(O)CCCCCCCC(=O)O (stereo not drawn) [Compound 4, (10E,14Z)-9-hydroxy-10,14-octadecadien-12-ynoic acid] | 69 | [astringent] | 320 | 
O=C(O)CCCCCCC/C=C\C=C/CC(O)CCCCO (stereo not drawn) [Compound 3, (9Z,11Z)-14,18-dihydroxyoctadeca-9,11-dienoic acid] |  | [bitter] | 281 | did not exhibit a kokumi effect; also recorded: do not exhibit a kokumi flavor
CCC/C=C\CC(O)/C=C/CCCCCCCCC(=O)O (stereo not drawn) [Compound 8, (10E,14Z)-12-hydroxy-10,14-octadecadienoic acid] |  | [bitter] | 297 | did not exhibit a kokumi effect; also recorded: do not exhibit a kokumi flavor
O=C(O)CCCCCCC/C=C\C=C/CC(O)CCC(O)CO (stereo not drawn) [Compound 2, (9Z,11Z)-14,17,18-trihydroxy-9,11-octadecadienoic acid] |  | [bitter] | 331 | did not exhibit a kokumi effect; also recorded: do not exhibit a kokumi flavor
